Data taken from US20240158446A1, “CYCLIC COMPOUND HAVING SELECTIVE INHIBITORY ACTION ON KRAS OVER HRAS AND NRAS” (CHUGAI SEIYAKU KABUSHIKI KAISHA, priority 2021, published 2024).
Read-outs that look alike come from different tables or passages of the source. Where a SMILES comes first, the peptide text is derived from it. Bridges are numbered along the chain shown (N, C = ends). [ ]: non-standard residue; d: D form. The star is where a group is joined. hPhe(3,5-F2-4-CF3) = N[C@@H](CCc1cc(F)c(C(F)(F)F)c(F)c1)C(=O)O; hPhe(3-Cl-4-CF3) = N[C@@H](CCc1ccc(C(F)(F)F)c(Cl)c1)C(=O)O; NPrPhe(4-CF3) = CCCN[C@@H](Cc1ccc(C(F)(F)F)cc1)C(=O)O; NMeGly(cPent) = CN[C@H](C(=O)O)C1CCCC1; Pro(4,4-F2) = O=C(O)[C@@H]1CC(F)(F)CN1; Nva(3-Et) = CCC(CC)[C@H](N)C(=O)O; NMeD = CN[C@@H](CC(=O)O)C(=O)O; NMeL = CN[C@@H](CC(C)C)C(=O)O; αMeS = C[C@](N)(CO)C(=O)O; Morpholide = C1CN(*)CCO1; Ac5c = NC1(C(=O)O)CCCC1; Aze = O=C(O)[C@@H]1CCN1; Ac4c = NC1(C(=O)O)CCC1; NEtG = CCNCC(=O)O; Sar = CNCC(=O)O; Allyl = C=CC*

Assays:
[1] = target: GDP-bound NRAS wild-type protein (Homo sapiens, UniProt P01111); assay: Binding to NRAS by surface plasmon resonance (SPR), Single Cycle Kinetics; settings: for NRAS/KRAS (ratio of KD value for NRAS to KD value for KRAS) / NRAS/KRAS (ratio of KD value with respect to NRAS to KD value with respect to KRAS): SPR, GDP-bound NRAS wild-type protein vs GDP-bound KRAS wild-type protein
GDP-bound NRAS wild-type protein, sequence (P01111 whole entry): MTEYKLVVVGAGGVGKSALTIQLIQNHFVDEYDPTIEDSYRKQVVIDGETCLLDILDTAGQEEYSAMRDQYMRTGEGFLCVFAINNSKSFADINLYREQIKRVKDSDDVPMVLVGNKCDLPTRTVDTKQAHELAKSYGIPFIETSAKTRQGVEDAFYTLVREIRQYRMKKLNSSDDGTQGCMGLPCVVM

[2] = target: GDP-bound HRAS wild-type protein (Homo sapiens, UniProt P01112); assay: Binding to HRAS by surface plasmon resonance (SPR), Single Cycle Kinetics; settings: for HRAS/KRAS (ratio of KD value for HRAS to KD value for KRAS) / HRAS/KRAS (ratio of KD value with respect to HRAS to KD value with respect to KRAS): SPR, GDP-bound HRAS wild-type protein vs GDP-bound KRAS wild-type protein
GDP-bound HRAS wild-type protein, sequence (P01112 whole entry): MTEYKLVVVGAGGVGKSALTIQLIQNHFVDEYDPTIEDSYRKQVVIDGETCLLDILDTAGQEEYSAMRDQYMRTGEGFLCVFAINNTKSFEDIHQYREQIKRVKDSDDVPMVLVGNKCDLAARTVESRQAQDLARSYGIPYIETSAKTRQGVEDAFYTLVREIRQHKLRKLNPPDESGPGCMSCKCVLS

[3] = target: GDP-bound KRAS wild-type protein (Homo sapiens, UniProt P01116); assay: Binding to KRAS by surface plasmon resonance (SPR), Single Cycle Kinetics; settings: GDP-bound KRAS wild-type protein, read-out: KRAS KD
GDP-bound KRAS wild-type protein, sequence (P01116 whole entry): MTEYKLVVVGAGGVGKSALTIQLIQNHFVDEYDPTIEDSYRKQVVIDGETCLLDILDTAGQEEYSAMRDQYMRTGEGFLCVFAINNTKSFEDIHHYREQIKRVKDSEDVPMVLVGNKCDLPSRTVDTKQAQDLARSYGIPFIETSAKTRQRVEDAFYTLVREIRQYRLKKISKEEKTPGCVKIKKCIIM

[4] = SPR Single Cycle Kinetics, 1:1 binding model

| Kd ([3]; SPR, Single Cycle Kinetics) | Kd [3, 4] | Compound | NRAS/KRAS (ratio of KD value for NRAS to KD value for KRAS) [1] | HRAS/KRAS (ratio of KD value for HRAS to KD value for KRAS) [2] | NRAS/KRAS (ratio of KD value with respect to NRAS to KD value with respect to KRAS) [1] | HRAS/KRAS (ratio of KD value with respect to HRAS to KD value with respect to KRAS) [2] | NRAS/KRAS (ratio of KD value with respect to GDP-bound NRAS wild-type protein to KD value with respect to KRAS) ([1]; SPR KD ratio NRAS/KRAS, class symbols) | HRAS/KRAS (ratio of KD value with respect to GDP-bound HRAS wild-type protein to KD value with respect to KRAS) ([2]; SPR KD ratio HRAS/KRAS, class symbols) |
| --- | --- | --- | --- | --- | --- | --- | --- | --- |
| – | 2.5 nM | CCO[C@@H]1C[C@H]2C(=O)NC3(CC(C)(C)C3)C(=O)N(C)[C@@H](CC3CCC3)C(=O)N(C)[C@H](C(=O)N(C)C)CC(=O)N(C)[C@@H](COC)C(=O)N[C@@H]([C@@H](C)CC)C(=O)N(C3CC3)CC(=O)N(C)[C@H]3C/C=C\CCN(C3=O)[C@@H](Cc3ccc(C(F)(F)F)cc3)C(=O)N(C)CC(=O)N[C@@H](CCc3cc(F)c(C(F)(F)F)c(F)c3)C(=O)N2C1 [PP2769] | – | – | – | – | AA (a compound having 20 or more is denoted as AA) | A (a compound having 10 or more and less than 20 is denoted as A) |
| 0.33 nM | – | CCO[C@@H]1C[C@H]2C(=O)NC3(CC(C)(C)C3)C(=O)N(C)[C@@H](C(CC)CC)C(=O)N(C)[C@H](C(=O)N3CCCC3)CC(=O)N(C)[C@@H](COC)C(=O)N[C@@H]([C@@H](C)CC)C(=O)N(C)CC(=O)N(C)[C@H]3C/C=C\CCN(C3=O)[C@@H](Cc3ccc(C(F)(F)F)cc3)C(=O)N(C)CC(=O)N[C@@H](CCc3ccc(C(F)(F)F)c(OC)c3)C(=O)N2C1 [PP2159] | AA (a compound having 20 or more is denoted as AA) | A (a compound having 10 or more and less than 20 is denoted as A) | – | – | – | – |

Second part, the compound before the results:

| Compound | Kd ([3]; SPR, Single Cycle Kinetics) | Kd [3, 4] | NRAS/KRAS (ratio of KD value for NRAS to KD value for KRAS) [1] | HRAS/KRAS (ratio of KD value for HRAS to KD value for KRAS) [2] | NRAS/KRAS (ratio of KD value with respect to NRAS to KD value with respect to KRAS) [1] | HRAS/KRAS (ratio of KD value with respect to HRAS to KD value with respect to KRAS) [2] | NRAS/KRAS (ratio of KD value with respect to GDP-bound NRAS wild-type protein to KD value with respect to KRAS) ([1]; SPR KD ratio NRAS/KRAS, class symbols) | HRAS/KRAS (ratio of KD value with respect to GDP-bound HRAS wild-type protein to KD value with respect to KRAS) ([2]; SPR KD ratio HRAS/KRAS, class symbols) |
| --- | --- | --- | --- | --- | --- | --- | --- | --- |
| CCO[C@@H]1C[C@H]2C(=O)NC3(CCC3)C(=O)N(C)[C@@H](C3CCCC3)C(=O)N(C)[C@H](C(=O)N3CCOCC3)CC(=O)N(C)[C@@H](COC)C(=O)N[C@@H]([C@@H](C)CC)C(=O)N(C)CC(=O)N(C)[C@H]3CCCCCN(C3=O)[C@@H](Cc3ccc(C(F)(F)F)cc3)C(=O)N(C)CC(=O)N[C@@H](CCc3ccc(C(F)(F)F)c(Cl)c3)C(=O)N2C1 [PP0849] | 0.46 nM | – | B (a compound having 3 or more and less than 10 is denoted as B) | B (a compound having 3 or more and less than 10 is denoted as B) | – | – | – | – |
| CC[C@H](C)[C@@H]1NC(=O)[C@H](CC(C)C)N(C)C(=O)C[C@@H](C(=O)N2CCOCC2)N(C)C(=O)[C@H](C2CCCCC2)N(C)C(=O)C2(CCCC2)NC(=O)[C@@H]2CCCN2C(=O)[C@H](CCc2cc(F)c(C(F)(F)F)c(F)c2)NC(=O)CN(C)C(=O)[C@H](Cc2ccc(C(F)(F)F)cc2)N2CCCCC[C@@H](C2=O)N(C)C(=O)CN(C)C1=O [PP0505] | – | 10 nM | – | – | B (a compound having 3 or more and less than 10 is denoted as B) | B (a compound having 3 or more and less than 10 is denoted as B) | – | – |
| CCCN1C(=O)CN(C)C(=O)CN(C)C(=O)[C@H](C(CC)CC)NC(=O)[C@H](CC(C)C)N(C)C(=O)C[C@@H](C(=O)N2CCOCC2)N(C)C(=O)[C@H](C2CCCC2)N(C)C(=O)C2(CCCC2)NC(=O)[C@@H]2CCCN2C(=O)[C@H](CCc2cc(F)c(C(F)(F)F)c(F)c2)NC(=O)CN(C)C(=O)[C@@H]1Cc1ccc(C(F)(F)F)cc1 [PP0768] ([NMeL][Nva(3-Et)][Sar][Sar][NPrPhe(4-CF3)][Sar][hPhe(3,5-F2-4-CF3)]P[Ac5c][NMeGly(cPent)][NMeD]-Morpholide; lactam N-11) | – | 0.97 nM | – | – | B (a compound having 3 or more and less than 10 is denoted as B) | C (A compound having a KD ratio of 0.1 or more and less than 3 is denoted as C) | – | – |
| CCCN1C(=O)CN(C)C(=O)CN(CC)C(=O)[C@H]([C@@H](C)CC)NC(=O)[C@H](CC(C)C)N(C)C(=O)C[C@@H](C(=O)N2CCOCC2)NC(=O)[C@H](C2CCCC2)N(C)C(=O)C2(CCC2)NC(=O)[C@@H]2CC(F)(F)CN2C(=O)[C@H](CCc2ccc(C(F)(F)F)c(Cl)c2)NC(=O)CN(C)C(=O)[C@@H]1Cc1ccc(C(F)(F)F)cc1 [PP0334] ([NMeL]I[NEtG][Sar][NPrPhe(4-CF3)][Sar][hPhe(3-Cl-4-CF3)][Pro(4,4-F2)][Ac4c][NMeGly(cPent)]D-Morpholide; lactam N-11) | – | 4.7 nM | B (a compound having 3 or more and less than 10 is denoted as B) | C (A compound having a KD ratio of 0.1 or more and less than 3 is denoted as C) | – | – | – | – |
| C=CCOC[C@]1(C)NC(=O)[C@@H]2CCCN2C(=O)[C@H](CCc2cc(F)c(C(F)(F)F)c(F)c2)NC(=O)CN(C)C(=O)[C@H](Cc2ccc(C(F)(F)F)cc2)N(CCC)C(=O)[C@@H]2CCN2C(=O)CN(C)C(=O)[C@H]([C@@H](C)CC)NC(=O)[C@H](CC(C)C)N(C)C(=O)C[C@@H](C(=O)N2CCOCC2)N(C)C(=O)[C@H](C2CCCC2)N(C)C1=O [PP0799] ([NMeL]I[Sar][Aze][NPrPhe(4-CF3)][Sar][hPhe(3,5-F2-4-CF3)]P[αMeS](Allyl)[NMeGly(cPent)][NMeD]-Morpholide; lactam N-11) | – | 1.5 nM | – | – | C (A compound having a KD ratio of 0.1 or more and less than 3 is denoted as C) | B (a compound having 3 or more and less than 10 is denoted as B) | – | – |
